Assays:
Experiment in all cases: standardised AUC of viability dose-response curve (72 h) (fraction (0-1)); higher = less growth inhibition (more resistant)
[1] = system: SYO-1
Method in brief: (§1)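 Sarcoma cell lines in 384-well plates were treated in triplicate for 72 h with 2.5 µl of a compound dilution series, made in 1:3 steps from 10 mM to 0.0002 mM on the compound plate. ATPLite viability was scaled from 1 (full) to 0 (none) and fitted per drug and cell line with a four-parameter log-logistic model. The values are standardised areas under the dose-response curve in log-dose space, from a modified drexplorer computeAUC. On that scale, 1 means no response and 0 means full response.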

[2] = system: SW872
Method in brief: as §1

[3] = system: HT1080
Method in brief: as §1

[4] = system: SW982
Method in brief: as §1

[5] = system: SK-ES-1
Method in brief: as §1

[6] = system: RD
Method in brief: as §1

[7] = system: MES-SA
Method in brief: as §1

[8] = system: A204
Method in brief: as §1

[9] = system: HS729
Method in brief: as §1

[10] = system: KHOS-240S
Method in brief: as §1

[11] = system: G401
Method in brief: as §1

[12] = system: SW1353
Method in brief: as §1

[13] = system: SK-LMS-1
Method in brief: as §1

[14] = system: VA-ES-BJ
Method in brief: as §1

[15] = system: SW684
Method in brief: as §1

[16] = system: KHOS-NP
Method in brief: as §1

[17] = system: RD-ES
Method in brief: as §1

Structure (SMILES) | standardised AUC [1] | standardised AUC [2] | standardised AUC [3] | standardised AUC [4] | standardised AUC [5] | standardised AUC [6] | standardised AUC [7] | standardised AUC [8] | standardised AUC [9] | standardised AUC [10] | standardised AUC [11] | standardised AUC [12] | standardised AUC [13] | standardised AUC [14] | standardised AUC [15] | standardised AUC [16] | standardised AUC [17]
Cc1cn(-c2cc(NC(=O)c3ccc(C)c(Nc4nccc(-c5cccnc5)n4)c3)cc(C(F)(F)F)c2)cn1 [NILOTINIB] | 0.843 | 0.971 | 0.972 | 0.976 | 0.909 | 0.926 | 0.957 | 0.799 | 0.917 | 0.947 | 0.954 | 0.996 | 1 | 0.981 | 1 | 0.989 | 0.949
COc1cc2nccc(Oc3ccc(NC(=O)C4(C(=O)Nc5ccc(F)cc5)CC4)cc3)c2cc1OC [CABOZANTINIB] | 0.714 | 0.908 | 0.965 | 0.916 | 0.89 | 0.95 | 0.871 | 0.656 | 0.809 | 0.923 | 0.856 | 0.855 | 0.661 | 0.913 | 0.827 | 0.96 | 0.919
C=CC(=O)Nc1cc(Nc2nccc(-c3cn(C)c4ccccc34)n2)c(OC)cc1N(C)CCN(C)C [OSIMERTINIB] | 0.798 | 0.918 | 0.938 | 0.907 | 0.847 | 0.921 | 0.893 | 0.873 | 0.874 | 0.923 | 0.904 | 0.919 | 0.925 | 0.916 | 0.939 | 0.974 | 0.89
CCN(CCCOc1ccc2c(Nc3cc(CC(=O)Nc4cccc(F)c4)[nH]n3)ncnc2c1)CCOP(=O)(O)O [BARASERTIB] | 0.581 | 0.94 | 0.925 | 0.745 | 0.4 | 0.826 | 0.685 | 0.816 | 0.928 | 0.856 | 0.869 | 0.915 | 0.938 | 0.8 | 0.972 | 1 | 0.5
C=CC(=O)Nc1cccc(Nc2nc(Nc3ccc(N4CCN(C(C)=O)CC4)cc3OC)ncc2C(F)(F)F)c1 [ROCILETINIB] | 0.867 | 0.912 | 0.973 | 0.906 | 0.831 | 0.899 | 0.874 | 0.912 | 0.878 | 0.929 | 0.886 | 0.889 | 0.893 | 0.921 | 0.937 | 0.975 | 0.857
CC[C@@H]1C(=O)N(C)c2cnc(Nc3ccc(C(=O)N[C@H]4CC[C@H](N5CCN(CC6CC6)CC5)CC4)cc3OC)nc2N1C(C)C [VOLASERTIB] | 0.453 | 0.578 | 0.601 | 0.547 | 0.52 | 0.533 | 0.555 | 0.647 | 0.766 | 0.534 | 0.653 | 0.723 | 0.635 | 0.531 | 0.693 | 0.642 | 0.504
CCN(c1cc(-c2ccc(CN3CCOCC3)cc2)cc(C(=O)NCc2c(C)cc(C)[nH]c2=O)c1C)C1CCOCC1 [TAZEMETOSTAT] | 0.971 | 0.986 | 0.988 | 0.985 | 0.96 | 0.997 | 0.976 | 0.998 | 0.946 | 0.971 | 0.989 | 0.973 | 0.977 | 1 | 0.998 | 0.963 | 0.985
N#Cc1ccnc(N2C(=O)CC[C@H]2C(=O)N(c2cncc(F)c2)[C@H](C(=O)NC2CC(F)(F)C2)c2ccccc2Cl)c1 [IVOSIDENIB] | 0.985 | 1 | 1 | 0.974 | 0.997 | 0.992 | 0.999 | 0.972 | 0.986 | 0.988 | 0.981 | 0.993 | 0.977 | 0.987 | 0.993 | 0.993 | 0.988
CN1CCN(CCOc2cc(OC3CCOCC3)c3c(Nc4c(Cl)ccc5c4OCO5)ncnc3c2)CC1 [SARACATINIB] | 0.851 | 0.858 | 0.981 | 0.821 | 0.931 | 0.871 | 0.943 | 0.906 | 0.849 | 0.884 | 0.918 | 0.865 | 0.908 | 0.938 | 0.977 | 0.951 | 0.955
Cc1ccc(NC(=O)c2ccc(CN3CCN(C)CC3)cc2)cc1Nc1nccc(-c2cccnc2)n1 [IMATINIB] | 0.865 | 0.979 | 0.974 | 0.98 | 0.962 | 0.988 | 0.973 | 0.725 | 0.959 | 0.949 | 0.957 | 0.984 | 0.982 | 0.987 | 0.983 | 0.966 | 0.983
COc1cc(Nc2c(C#N)cnc3cc(OCCCN4CCN(C)CC4)c(OC)cc23)c(Cl)cc1Cl [BOSUTINIB] | 0.909 | 0.848 | 0.917 | 0.795 | 0.78 | 0.895 | 0.861 | 0.93 | 0.906 | 0.851 | 0.932 | 0.895 | 0.932 | 0.85 | 0.883 | 0.87 | 0.856
Cc1cn(-c2cc(NC(=O)c3ccc(C)c(Nc4nccc(-c5cnccn5)n4)c3)cc(C(F)(F)F)c2)cn1 [RADOTINIB] | 0.929 | 0.967 | 0.997 | 0.995 | 0.999 | 0.992 | 1 | 0.894 | 0.976 | 0.988 | 0.977 | 1 | 1 | 1 | 1 | 0.992 | 0.996
FC(F)(F)c1ccc(CNc2ccc(Cc3c[nH]c4ncc(Cl)cc34)cn2)cn1 [PEXIDARTINIB] | 0.861 | 0.939 | 0.953 | 1 | 0.97 | 1 | 0.978 | 0.837 | 0.903 | 0.975 | 0.946 | 0.935 | 0.979 | 0.976 | 0.974 | 0.955 | 0.991
COc1cc2nccc(Oc3ccc(NC(=O)NC4CC4)c(Cl)c3)c2cc1C(N)=O [LENVATINIB] | 0.701 | 0.978 | 0.995 | 0.966 | 0.898 | 0.999 | 0.911 | 0.587 | 0.866 | 0.888 | 0.845 | 0.914 | 0.984 | 1 | 0.992 | 1 | 0.937
C[C@H]1Oc2cc(cnc2N)-c2c(nn(C)c2C#N)CN(C)C(=O)c2ccc(F)cc21 [LORLATINIB] | 0.895 | 0.861 | 0.977 | 0.887 | 0.963 | 0.926 | 0.951 | 0.959 | 0.871 | 0.953 | 0.96 | 0.928 | 0.952 | 0.941 | 0.983 | 0.957 | 0.932
NC(=O)c1cccc2cn(-c3ccc([C@@H]4CCCNC4)cc3)nc12 [NIRAPARIB] | 0.842 | 1 | 0.999 | 0.94 | 0.8 | 0.956 | 0.961 | 0.949 | 0.977 | 0.983 | 0.971 | 0.966 | 0.979 | 0.966 | 0.989 | 1 | 0.874
C[C@@H](Oc1cc(-c2cnn(C3CCNCC3)c2)cnc1N)c1c(Cl)ccc(F)c1Cl [CRIZOTINIB] | 0.745 | 0.834 | 0.919 | 0.74 | 0.72 | 0.824 | 0.765 | 0.877 | 0.879 | 0.873 | 0.859 | 0.915 | 0.717 | 0.817 | 0.901 | 0.944 | 0.758
CO[C@@H]1[C@H](N(C)C(=O)c2ccccc2)C[C@H]2O[C@]1(C)n1c3ccccc3c3c4c(c5c6ccccc6n2c5c31)C(=O)NC4 [MIDOSTAURIN] | 0.642 | 0.757 | 0.8 | 0.709 | 0.689 | 0.81 | 0.731 | 0.715 | 0.796 | 0.709 | 0.778 | 0.733 | 0.773 | 0.785 | 0.835 | 0.812 | 0.764
COc1cc2ncnc(Nc3ccc(F)c(Cl)c3)c2cc1NC(=O)/C=C/CN1CCCCC1 [DACOMITINIB] | 0.856 | 0.87 | 0.916 | 0.814 | 0.824 | 0.869 | 0.858 | 0.842 | 0.907 | 0.896 | 0.89 | 0.804 | 0.91 | 0.893 | 0.888 | 0.939 | 0.879
Cc1c(F)cc(C(=O)NC2CC2)cc1-c1ccc(C(=O)NCC(C)(C)C)cn1 [LOSMAPIMOD] | 0.933 | 0.992 | 0.999 | 0.991 | 0.929 | 0.981 | 0.944 | 0.977 | 0.87 | 0.944 | 0.941 | 0.993 | 0.973 | 0.941 | 0.995 | 0.999 | 0.95
Cc1cc(Nc2ncc(Cl)c(Nc3ccccc3S(=O)(=O)C(C)C)n2)c(OC(C)C)cc1C1CCNCC1 [CERITINIB] | 0.884 | 0.901 | 0.918 | 0.827 | 0.751 | 0.81 | 0.916 | 0.87 | 0.889 | 0.874 | 0.833 | 0.865 | 0.924 | 0.933 | 0.923 | 0.933 | 0.784
C[C@@H]1COC(Nc2ccc3ncnc(Nc4ccc(OCc5nccs5)c(Cl)c4)c3c2)=N1 [VARLITINIB] | 0.97 | 0.962 | 0.974 | 0.975 | 0.97 | 1 | 0.954 | 0.918 | 0.955 | 0.975 | 0.953 | 0.928 | 0.987 | 0.994 | 0.994 | 0.992 | 0.989
N#CCC1(n2cc(-c3ncnc4[nH]ccc34)cn2)CN(C2CCN(C(=O)c3ccnc(C(F)(F)F)c3F)CC2)C1 [ITACITINIB] | 0.867 | 0.922 | 0.977 | 0.974 | 0.969 | 0.997 | 0.977 | 0.965 | 0.853 | 0.96 | 0.968 | 0.95 | 0.948 | 0.948 | 0.983 | 0.946 | 0.975
Cc1cccc(-c2[nH]c(CNc3ccccc3F)nc2-c2ccc3ncnn3c2)n1 [VACTOSERTIB] | 0.911 | 1 | 1 | 0.995 | 0.997 | 0.996 | 0.991 | 0.982 | 0.917 | 0.957 | 0.993 | 0.992 | 0.995 | 1 | 0.959 | 0.989 | 0.99

Reference: the supplement of paper PMC10883282
